In patent publication US20090156620A1, “[4-(6-FLUORO-7-METHYLAMINO-2,4-DIOXO-1,4-DIHYDRO-2H-QUINAZOLIN-3-YL)-PHENYL]-5-CHLORO-THIOPHEN-2-YL-SULFONYLUREA SALTS, FORMS AND METHODS RELATED THERETO” (Portola Pharmaceuticals, Inc., priority 2007, published 2009):

Legend:
[1] = target: T1, P2Y12 receptor on platelets (Homo sapiens, UniProt Q9H244); assay: platelet ADP receptor binding assay (ARB), inhibition of [3H]2-MeS-ADP binding to platelets
T1 construct: endogenous in cells; host or cells: whole apyrase-washed human platelets (outdated from hospital blood banks, or fresh)
Procedure: 1. The Ability of Candidate Molecules to Inhibit the Binding of [3H]2-MeS-ADP to the P2Y12 Receptor on Platelets was Determined Using a Radioligand Binding Assay
Utilizing this assay the potency of inhibition of such compounds with respect to [^3H]2-MeS-ADP binding to whole platelets is determined. Under the conditions described in II (3) below, the binding of [^3H]2-MeS-ADP is solely due to the interaction of this ligand with the P2Y12 receptor, in that all the specific binding measured in this assay is compatable with a P2Y12 antagonist (i.e., the specific binding is reduced to background levels by competition with an excess of P2Y12 antagonist, with no competition of binding when a P2Y1 antagonist is pre-incubated with the platelet preparation). […]
A platelet ADP receptor binding assay (ARB) using the tritiated potent agonist ligand [^3H]2-MeS-ADP (Jantzen, H. M. et al. (1999) Thromb. Hemost. 81:111-117) has been adapted to the 96-well microtiter format. […] Total binding is determined in the absence of test compounds. […] The platelet-bound radioactivity on the filtermats is determined in a scintillation counter (Microbeta 1450, Wallac Inc., Gaithersburg, Md.). Specific binding is determined by subtraction of non-specific binding from total binding, and specific binding in the presence of test compounds is expressed as % of specific binding in the absence of test compound dilutions. […]

[2] = system: ADP-induced human platelet aggregation; assay: inhibition of ADP-mediated platelet aggregation in platelet-rich plasma (PRP assay); assay type: cell-based
Procedure: The effect of testing the compound according to the invention on ADP-induced human platelet aggregation was assessed in a 96-well microtiter assay (see generally the procedures in Jantzen, H. M. et al. (1999) Thromb. Hemost. 81:111′-117) or standard cuvette light transmittance aggregometry using either human platelet-rich plasma (PRP) or human washed platelets.
For preparation of human platelet-rich plasma for aggregation assays, human venous blood was collected from healthy, drug-free volunteers into 0.38% sodium citrate (0.013 M, pH 7.0 final). Platelet-rich plasma (PRP) is prepared by centrifugation of whole blood at 160×g for 20 minutes at room temperature. […]
For cuvette light transmittance aggregation assays, serial dilutions (1:3) of test compounds were prepared in 100% DMSO in a 96 well V-bottom plate (final DMSO concentration in the cuvette was 0.6%). […] The aggregation reaction is recorded for ˜5 mins, and maximum extent of aggregation is determined by the difference in extent of aggregation at baseline, compared to the maximum aggregation that occurs during the five minute period of the assay. Inhibition of aggregation was calculated as the maximum aggregation observed in the presence of inhibitor, compared to that in the absence of inhibitor. […]

[3] = gravimetric vapour sorption (GVS); assay type: physicochemical
Procedure: Sorption isotherms were obtained using a Hiden IGASorp moisture sorption analyser, controlled by CFRSorp software. The sample temperature was maintained at 25° C. by a Huber re-circulating water bath. The humidity was controlled by mixing streams of dry and wet nitrogen, with a total flow rate of 250 ml.min^−1. […] (typical room conditions). A moisture sorption isotherm was performed as outlined below (2 scans giving 1 complete cycle). […] The software uses a least squares minimisation procedure together with a model of the mass relaxation, to predict an asymptotic value. […] The minimum equilibration time was set to 1 hour and the maximum to 4 hours. The sample was recovered after completion of the isotherm and re-analysed by XRPD.

[4] = accelerated stability test, chemical purity; assay type: physicochemical; conditions: one week, 40° C., 75% RH
Procedure: Purity analysis was performed on an Agilent HP1100 system equipped with a diode array detector and using ChemStation software v9.

[5] = solid form stability on storage at elevated temperature/humidity, by XRPD; assay type: physicochemical; conditions: 75% RH/40° C. for up to 6 months
Procedure: To 20 mg of [4-(6-fluoro-7-methylamino-2,4-dioxo-1,4-dihydro-2H-quinazolin-3-yl)-phenyl]-5-chloro-thiophen-2-yl-sulfonylurea in 3 mL of the various solvents, was added 1.1 eq. of the base in 1 mL solvent. The mixture was shaken for 2 hours and the solutions were left to evaporate down to half their volume to try to precipitate out the salt. […] Oils/emulsions and opaque liquids were left to maturate at 50° C./ambient in an 8 hour cycles for several weeks. […] Solid samples (crystalline and amorphous) were then filtered, dried and then analyzed to judge their purity, crystallinity and stability. Solids were analysed by ^1H NMR to confirm salt formation and analyzed by ion chromatography and TGA to obtain the stoichiometry of the salt.

[6] = solid form stability of API dispersed in aqueous vehicle; assay type: physicochemical; conditions: dry ground API dispersed into aqueous 0.1M phosphate buffer
Text: It was observed that after grinding the API with the diluent of Tox formulation, i.e., 0.5% methylcellulose and 0.1M phosphate sodium buffer at pH7.4, the drug particles became very dense and quickly precipitated during transfer and dosing. […] In addition, if only dry grinding is used to reduce the particle size of the API first and subsequently, the API is quickly dispersed into aqueous 0.1M phosphate buffer without applying significant mechanical stress, the solid form of the API can be maintained in form B for at least 6 hours.

[7] = polymorphism experiments, form B slurried in solvents; assay type: physicochemical; conditions: ca. 50 mg in ten volumes, ambient, two hours
Text: The propensity of [4-(6-fluoro-7-methylamino-2,4-dioxo-1,4-dihydro-2H-quinazolin-3-yl)-phenyl]-5-chloro-thiophen-2-yl-sulfonylurea potassium salt form B to form polymorphs was studied. Form B (a hemi-hydrate) was slurried in a range of solvents (neat and mixtures). The solvents were chosen based on their pharmaceutical acceptability and also a range of functional groups and polarities such as alcohols, ethers and esters. To encourage hydrate formation, aqueous mixtures were also chosen. The solvents used are detailed in Table 7.
Approximately 50 mg of [4-(6-fluoro-7-methylamino-2,4-dioxo-1,4-dihydro-2H-quinazolin-3-yl)-phenyl]-5-chloro-thiophen-2-yl-sulfonylurea potassium salt, form B was suspended in ten volumes of the solvents detailed in table 7 and stirred at ambient for two hours. […] The suspensions were filtered under vacuum and analysed by XRPD. Most of the solids remained as form B, with a 1:1 acetone/water mixture leading to a subtle change in solid form. The 1:1 tetrahydrofuran/water mixture generated a mixture of that subtly different form and form B.
To all the form B samples a further aliquot of five volumes of appropriate solvent was added and the suspensions were slurried at 50° C. for 4 hours then cooled to ambient for 4 hours. This cycle was repeated for a total of 24 hours, after which time the suspensions were filtered under vacuum and analysed by XRPD.

T1 sequence (Q9H244 whole entry): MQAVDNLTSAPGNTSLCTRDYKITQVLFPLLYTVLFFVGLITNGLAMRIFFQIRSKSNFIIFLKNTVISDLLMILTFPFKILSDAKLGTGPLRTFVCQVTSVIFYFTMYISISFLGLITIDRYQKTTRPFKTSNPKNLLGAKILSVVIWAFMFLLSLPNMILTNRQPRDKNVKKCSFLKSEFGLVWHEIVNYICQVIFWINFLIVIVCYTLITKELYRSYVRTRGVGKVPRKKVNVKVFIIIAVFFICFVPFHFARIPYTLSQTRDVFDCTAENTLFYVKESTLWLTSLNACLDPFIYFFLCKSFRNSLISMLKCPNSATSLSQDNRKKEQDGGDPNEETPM

| Compound | IC50 [1] | IC50 [2] | hygroscopicity [3] | RH range in which the 2.5 hydrate is stable ([3]; 25° C.) | dehydration ([3]; 25° C.) | change in the chemical purity [4] | XRPD after the GVS experiment [3] | change in solid state [5] | time the solid form is maintained in form B [6] | solvents that dissolved the salt [7] |
| --- | --- | --- | --- | --- | --- | --- | --- | --- | --- | --- |
| CNc1cc2[nH]c(=O)n(-c3ccc(NC(=O)NS(=O)(=O)c4ccc(Cl)s4)cc3)c(=O)c2cc1Cl [Example 3, [4-(6-chloro-7-methylamino-2,4-dioxo-1,4-dihydro-2H-quinazolin-3-yl)-phenyl]-5-chloro-thiophen-2-1-sulfonylurea] | > 0.5 µM | > 30 µM | – | – | – | – | – | – | – | – |
| CNc1cc2[nH]c(=O)n(-c3ccc(NC(=O)NS(=O)(=O)c4ccc(Cl)s4)cc3)c(=O)c2cc1F.[K] [Form A of the potassium salt, [4-(6-fluoro-7-methylamino-2,4-dioxo-1,4-dihydro-2H-quinazolin-3-yl)-phenyl]-5-chloro-thiophen-2-yl-sulfonylurea potassium salt 2.5 hydrate] | – | – | less hygroscopic than the amorphous form of the sodium salt | 20-90 % RH | dehydrates between 20 and 0% RH | No change | – | – | – | – |
| [4-(6-fluoro-7-methylamino-2,4-dioxo-1,4-dihydro-2H-quinazolin-3-yl)-phenyl]-5-chloro-thiophen-2-yl-sulfonylurea potassium salt hemi hydrate [Form B of the potassium salt] | – | – | non-hygroscopic | – | – | – | no phase change | no change in solid state | at least 6 hours | 2-methoxyethanol was the only solvent that dissolved the potassium salt |
